From patent EP1201238A1, “SULFONAMIDE DERIVATIVES AND REMEDIES FOR ALLODYNIA” (ONO PHARMACEUTICAL CO., LTD., priority 1999, dated 2001)

Assays:
[1] = test system: Allodynia caused by PGE2; assay: inhibitory effect on allodynia caused by intrathecal injection of PGE2; assay type: in vivo, male ddY mice; details: for % of allodynia expression, Allodynia caused by PGE2: mixture of PGE2 (10ng/body) and compound (10ng/body) injected intrathecally, mice, touch-stimulus score 5 min after administration, 100% = all subjects score 2; for anti-allodynia effect (in words): summary of tables 1, 2 and 3 (PGE2- and PGF2α-induced allodynia, mice)
Description: (1) an inhibitory effect on allodynia caused by intrathecal injection of PGE2
(§1) Five or six male ddY mice weighing 22± 2 g in a group were used. Under non-anesthesia, the mixture (5µL) of PGE2 (10ng/body) and a compound (10ng/body) with 27-gauge was injected intrathecally with stainless injection needle (0.33 mm, o.d.) between fifth and sixth vertebra lumbar of a mouse, 5. min after administration, to tail from belly side of a mouse was touch-stimulated with brush and allodynia was evaluated by score.
(§2) Score is 0: no changed, 1: escaped from touch-stimulus and squeaked, 2: escaped vigorously from touch-stimulus and squeaked loudly. When All the subjects got score 2, it was evaluated as 100% of allodynia expression.
(§3) For example, When, in six mice, score 0 is one, score 1 is three and score 2 is two, % of allodynia expression is below: ((0×1) + (1×3) + (2×2))/(6×2)× 100 = 58. 3(%) [formula]

[2] = test system: Allodynia caused by PGF2α; assay: inhibitory effect on allodynia caused by intrathecal injection of PGF2α; assay type: in vivo, male ddY mice; details: mixture of PGF2α (1µg/body) and compound (100ng/body) injected intrathecally, mice, touch-stimulus score 15min after administration
Description: as §1, §2, §3
(2) an inhibitory effect on allodynia caused by intrathecal injection of PGF2α
The experiment was the same as (1) with the exception that the mixture of PGF2α (1µg/body) and a compound (100ng/body) was used as administered drug and allodynia was evaluated at 15min after administration.

[3] = toxicity, maximal tolerated dose with oral administration; details: in vivo, rat
Description: The toxicity of the compounds of the present invention is very low and therefore the compounds may be considered safe for pharmaceutical use. For example, the maximal tolerated dose with oral administration of the compounds of formula (I), (IV) and (VI) was more than 2000 mg/kg in rat.

SMILES: O=C(O)CCC/C=C\[C@H]1[C@H]2CC[C@H](C2)[C@@H]1CNS(=O)(=O)c1ccccc1I [formula (I), 6-[(1S,2S,3S,4R)-3-(2-iodophenylsulfonylaminomethyl)bicyclo[2.2.1]heptan-2-yl]-5Z-hexenoic acid]
- % of allodynia expression, Allodynia caused by PGE2 [1]: 8.3 ± 8.3%
- % of allodynia expression, Allodynia caused by PGF2α [2]: 8.3 ± 8.3%
- MTD [3]: > 2000 mg/kg

SMILES: O=C(O)CCC/C=C\[C@H]1[C@@H]2CC[C@@H](C2)[C@@H]1CNS(=O)(=O)c1ccc(F)c(F)c1 [comparison compound 4, 6-[(1R,2S,3S,4S)-3-(3,4-difluorophenylsulfonylaminomethyl)bicyclo[2.2.1]heptan-2-yl]-5Z-hexenoic acid, reference compound]
- % of allodynia expression, Allodynia caused by PGE2 [1]: 75.0 ± 11.2%

SMILES: O=C(O)CCC/C=C\[C@H]1[C@H]2CC[C@H](C2)[C@@H]1CNS(=O)(=O)c1ccccc1F [formula (II), 6-[(1S,2S,3S,4R)-3-(2-fluorophenylsulfonylaminomethyl)bicyclo[2.2.1]heptan-2-yl]-5Z-hexenoic acid]
- % of allodynia expression, Allodynia caused by PGE2 [1]: 0.0 ± 0.0%
- % of allodynia expression, Allodynia caused by PGF2α [2]: 8.3 ± 8.3%

SMILES: O=C(O)CCC/C=C\[C@H]1[C@H]2CC[C@H](C2)[C@@H]1CNS(=O)(=O)c1c(Cl)cccc1Cl [comparison compound 3, 6-[(1S,2S,3S,4R)-3-(2,6-dichlorophenylsulfonylaminomethyl)bicyclo[2.2.1]heptan-2-yl]-5Z-hexenoic acid, reference compound]
- % of allodynia expression, Allodynia caused by PGE2 [1]: 91.7 ± 8.3%
- anti-allodynia effect (in words) [1]: no effect

SMILES: O=C(O)CCC/C=C\[C@H]1[C@H]2CC[C@H](C2)[C@@H]1CNS(=O)(=O)c1ccccc1Cl [comparison compound 1, 6-[(1S,2S,3S,4R)-3-(2-chlorophenylsulfonylaminomethyl)bicyclo[2.2.1]heptan-2-yl]-5Z-hexenoic acid, reference compound]
- % of allodynia expression, Allodynia caused by PGE2 [1]: 100 ± 0.0%
- anti-allodynia effect (in words) [1]: no effect
- % of allodynia expression, Allodynia caused by PGF2α [2]: 91.7 ± 8.3%

SMILES: COc1ccc(S(=O)(=O)N[C@H]2C[C@H]3C[C@@H]([C@@H]2C/C=C\CCCC(=O)O)C3(C)C)cc1 [formula (V), 7-[(1S,2S,3S,5R)-3-(4-methoxybenzenesulfonylamino)-6,6-dimethylbicyclo [3.1.1]heptan-2-yl]-5Z-heptenoic acid]
- % of allodynia expression, Allodynia caused by PGE2 [1]: 8.3 ± 8.3%
- anti-allodynia effect (in words) [1]: have activity
- % of allodynia expression, Allodynia caused by PGF2α [2]: 8.3 ± 8.3%

SMILES: O=C(O)CCC/C=C\[C@H]1[C@@H]2CC[C@@H](C2)[C@@H]1CNS(=O)(=O)c1cc(F)ccc1F [Formula(IV), 6-[(1R,2S,3S,4S)-3-(2,5-difluorophenylsulfonylaminomethyl)bicyclo[2.2.1]heptan-2-yl]-5Z-hexenoic acid]
- % of allodynia expression, Allodynia caused by PGE2 [1]: 8.3 ± 8.3%
- anti-allodynia effect (in words) [1]: effective
- % of allodynia expression, Allodynia caused by PGF2α [2]: 0.0 ± 0.0%
- MTD [3]: > 2000 mg/kg

SMILES: O=C(O)CCC/C=C\[C@H]1[C@@H]2CC[C@@H](C2)[C@@H]1CNS(=O)(=O)c1ccccc1I [comparison compound 2, 6-[(1R,2S,3S,4S)-3-(2-iodophenylsulfonylaminomethyl)bicyclo[2.2.1]heptan-2-yl]-5Z-hexenoic acid, reference compound]
- % of allodynia expression, Allodynia caused by PGE2 [1]: 83.3 ± 10.5%

SMILES: O=C(O)CCC/C=C\[C@H]1[C@H]2CC[C@H](C2)[C@@H]1CNS(=O)(=O)c1ccc(F)c(F)c1 [Formula(III), 6-[(1S,2S,3S,4R)-3-(3,4-difluorophenylsulfonylaminomethyl)bicyclo[2.2.1]heptan-2-yl]-5Z-hexenoic acid]
- % of allodynia expression, Allodynia caused by PGE2 [1]: 0.0 ± 0.0%
- anti-allodynia effect (in words) [1]: effective
- % of allodynia expression, Allodynia caused by PGF2α [2]: 8.3 ± 8.3%

SMILES: O=C(O)CCC/C=C\C[C@H]1[C@@H]2CC[C@@H](C2)[C@@H]1NS(=O)(=O)c1ccccc1 [comparison compound 6, reference compound]
- % of allodynia expression, Allodynia caused by PGE2 [1]: 90.0 ± 10.0%
- % of allodynia expression, Allodynia caused by PGF2α [2]: 60.0 ± 10.0%

SMILES: CC1(C)[C@H]2C[C@H](NS(=O)(=O)Cc3ccccc3)[C@@H](C/C=C\CCCC(=O)O)[C@@H]1C2 [comparison compound 5, 7-[(1S,2S,3S,5R)-3-benzylsulfonylamino-6,6-dimethylbicyclo[3.1.1]heptan-2-yl]-5Z-heptenoic acid, reference compound]
- % of allodynia expression, Allodynia caused by PGE2 [1]: 83.3 ± 10.5%
- % of allodynia expression, Allodynia caused by PGF2α [2]: 83.3 ± 10.5%

SMILES: CC1(C)[C@H]2C[C@H](NS(=O)(=O)c3ccccc3)[C@@H](C/C=C\CCCC(=O)O)[C@@H]1C2 [formula (VI), 7-[(1S,2S,3S,5R)-3-benzenesulfonylamino-6,6-dimethylbicyclo[3.1.1]heptan-2-yl]-5Z-heptenoic acid]
- % of allodynia expression, Allodynia caused by PGE2 [1]: 8.3 ± 8.3%
- anti-allodynia effect (in words) [1]: have activity
- % of allodynia expression, Allodynia caused by PGF2α [2]: 0.0 ± 0.0%
- MTD [3]: > 2000 mg/kg
